Test results taken from patent publication US9192639B1, “Convolvulus extract for treatment of peptic ulcer and helicobacter pylori infection” (KING SAUD UNIVERSITY, priority 2014, dated 2015).

Columns and labels:
[1] = test system: absolute ethanol-induced ulcer in Wistar rats; assay: Anti-ulcerogenic activity, absolute ethanol-induced ulcer model; format: in vivo; details: oral 100 mg/kg; for % Protection: % protection of control ulcer, 100 mg/kg
Experimental: Evaluation of the anti-ulcerogenic activity was carried out using an absolute ethanol-induced ulcer model according to published methods. About 30 Wistar rats were divided into 5 groups, each of 6 rats. Group 1 received the vehicle and served as control group. Group 2 received ranitidine (100 mg/kg) and served as a standard group. […] Rats of all groups were fasted for 24 hours, and then all medications were administered orally. […] The stomachs were rapidly removed, opened along their greater curvature, and gently rinsed under running tap water. The number of lesions in the glandular part of the stomach was measured under an illuminated magnifying microscope (10×). Long lesions were counted and their lengths were measured. Petechial lesions were counted, and then each five petechial lesions were taken as 1 mm of ulcer. The mucosal lesions were quantified by the scoring system (0-5), where 0=no damage; 1=Local edema and inflammation without ulcers; 2=One ulcer without inflammation; 3=one to two ulcers with inflammation & lesion diameter <1 cm; 4=More than two ulcers with lesion diameter 1-2 cm; 5=Sever ulceration with lesion diameter >2 cm. To calculate the ulcer index (mm), the sum of the total length of long ulcers and petechial lesions in each group of rats was divided by its number. The curative ratio was determined according to the formula: % Protection of control ulcer=Control UI−Test UI/Control UI×100.

[2] = test system: H. pylori clinical isolates and reference strain ATCC 43504; assay: Disk diffusion test, anti-Helicobacter pylori activity; format: cell-based; parameters: key to Inhibition Zone: *R: Resistant

With CNC(=C[N+](=O)[O-])NCCSCc1ccc(CN(C)C)o1 [Ranitidine] the “% Protection” value [1] was 46.2%, the “% Protection” value ([1]; listed as ranitidine) was “about 46.2%” and the Score ([1]; mucosal lesion scoring system 0-5) was 2.2.
With CC1(C)S[C@@H]2[C@H](NC(=O)[C@H](N)c3ccc(O)cc3)C(=O)N2[C@H]1C(=O)O [Amoxicillin] the “Inhibition Zone” value ([2]; H. pylori strain ATCC 43504, disk 30 μg) was 30 mm, the “Inhibition Zone” value ([2]; H. pylori strain KA01, disk 30 μg) was “R*” and the “Inhibition Zone” value ([2]; H. pylori strain KA01, disk 30 μg, listed as amoxicillin) was “resistant”. For the same compound, the “Inhibition Zone” value ([2]; H. pylori strain KA02, disk 30 μg) was 20 mm, the “Inhibition Zone” value ([2]; H. pylori strain KA03, disk 30 μg) was 21 mm and the “Inhibition Zone” value ([2]; H. pylori strain KA04, disk 30 μg) was 20 mm. The “Inhibition Zone” value ([2]; H. pylori strain KA05, disk 30 μg) was 22 mm, the “Inhibition Zone” value ([2]; H. pylori strain KA07, disk 30 μg) was 25 mm and the “Inhibition Zone” value ([2]; H. pylori strain KAO6, disk 30 μg) was 23 mm. For the same compound, the “Susceptibility of H. pylori isolates by disc diffusion” value ([2]; all isolates with the exception of isolate KA01) was “sensitive”.
CC[C@H]1OC(=O)[C@H](C)[C@@H](O[C@H]2C[C@@](C)(OC)[C@@H](O)[C@H](C)O2)[C@H](C)[C@@H](O[C@@H]2O[C@H](C)C[C@H](N(C)C)[C@H]2O)[C@](C)(O)C[C@@H](C)C(=O)[C@H](C)[C@@H](O)[C@]1(C)O [Erythromycin] was tested, and the “Inhibition Zone” value ([2]; H. pylori strain ATCC 43504, disk 15 μg) was 28 mm, the “Inhibition Zone” value ([2]; H. pylori strain KA01, disk 15 μg) was 19 mm and the “Inhibition Zone” value ([2]; H. pylori strain KA02, disk 15 μg) was 23 mm. For the same compound, the “Inhibition Zone” value ([2]; H. pylori strain KA03, disk 15 μg) was 22 mm, the “Inhibition Zone” value ([2]; H. pylori strain KA04, disk 15 μg) was 22 mm and the “Inhibition Zone” value ([2]; H. pylori strain KA05, disk 15 μg) was 20 mm. For the same compound, the “Inhibition Zone” value ([2]; H. pylori strain KA07, disk 15 μg) was 23 mm, the “Inhibition Zone” value ([2]; H. pylori strain KAO6, disk 15 μg) was 24 mm and the “Susceptibility of H. pylori isolates by disc diffusion” value ([2]; all of the isolates of H. pylori) was “sensitive”.
